In patent publication US12012398B2, “Bicyclic compounds as androgen receptor modulators” (NIDO BIOSCIENCES, INC., priority 2021, dated 2024):

These compounds were tested on LNCaP cells expressing ARR2PB-FireflyLuc and CMV-RenillaLuc (assay: LNCaP ARR2PB-FireflyLuc reporter assay, antagonist mode). Settings: Homo sapiens, LNCaP, 48 h, +0.5 nM DHT, 48 h at 37° C., read-out: LNCap Antagonist Archive: IC50.
Format: cell-based
Summary of the method: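 LNCaP cells carrying ARR2PB-firefly and CMV-Renilla luciferase reporters were exposed to compound with 0.5 nM DHT for 48 h at 37° C. Remaining activity was scaled between 0.5 nM DHT alone (high) and 10 uM enzalutamide + 0.5 nM DHT (low). IC50 from non-linear regression, reported in bins A–D.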
Compound CN(C(=O)c1cc2ccc(F)cc2[nH]1)C1CC(F)(F)C1 [Example 92, N-(3,3-difluorocyclobutyl)-6-fluoro-N-methyl-1H-indole-2-carboxamide] has an IC50 of 0.1 to 1 µM.
For CN(C(=O)c1cc2cccc(Cl)c2[nH]1)C1CC(C)(C)NC(C)(C)C1 [Example 75, 7-chloro-N-methyl-N-(2,2,6,6-tetramethylpiperidin-4-yl)-1H-indole-2-carboxamide], the IC50 was > 10 µM.
In the case of Cc1c(C(=O)N(C)C23CC(C2)C3)[nH]c2c(Cl)cccc12 [Example 104, N-[bicyclo[1.1.1]pentan-1-yl]-7-chloro-N,3-dimethyl-1H-indole-2-carboxamide], the IC50 is reported as > 10 µM.
Compound CC(C)N(Cc1ccncc1)C(=O)c1cc2ccc(F)cc2[nH]1 [Example 10, 6-fluoro-N-isopropyl-N-(pyridin-4-ylmethyl)-1H-indole-2-carboxamide] has an IC50 of 1 to 10 µM.
Cn1c(C(=O)NC(C)(C)C)cc2ccnc(Cl)c21 [Example 148, N-tert-butyl-7-chloro-1-methylpyrrolo[2,3-c]pyridine-2-carboxamide] gave an IC50 of 0.1 to 1 µM.
